{
  "source": "patent US8530423B2",
  "about": "“Anxiolytic compositions containing αs1-casein-derived peptides” (Universite de Lorraine, priority 2008, dated 2013)",
  "key": {"[1]": {"settings": "literature (ZIOUDROU et al., LOUKAS et al.); cited from earlier work"}, "rat [2]": {"tested_on": "rat", "settings": "PCT/EP2007/063863; cited from earlier work"}, "[3]": {"molecular_target": "angiotensin-I converting enzyme (Homo sapiens, UniProt P12821)", "sequence (P12821 30-1306)": "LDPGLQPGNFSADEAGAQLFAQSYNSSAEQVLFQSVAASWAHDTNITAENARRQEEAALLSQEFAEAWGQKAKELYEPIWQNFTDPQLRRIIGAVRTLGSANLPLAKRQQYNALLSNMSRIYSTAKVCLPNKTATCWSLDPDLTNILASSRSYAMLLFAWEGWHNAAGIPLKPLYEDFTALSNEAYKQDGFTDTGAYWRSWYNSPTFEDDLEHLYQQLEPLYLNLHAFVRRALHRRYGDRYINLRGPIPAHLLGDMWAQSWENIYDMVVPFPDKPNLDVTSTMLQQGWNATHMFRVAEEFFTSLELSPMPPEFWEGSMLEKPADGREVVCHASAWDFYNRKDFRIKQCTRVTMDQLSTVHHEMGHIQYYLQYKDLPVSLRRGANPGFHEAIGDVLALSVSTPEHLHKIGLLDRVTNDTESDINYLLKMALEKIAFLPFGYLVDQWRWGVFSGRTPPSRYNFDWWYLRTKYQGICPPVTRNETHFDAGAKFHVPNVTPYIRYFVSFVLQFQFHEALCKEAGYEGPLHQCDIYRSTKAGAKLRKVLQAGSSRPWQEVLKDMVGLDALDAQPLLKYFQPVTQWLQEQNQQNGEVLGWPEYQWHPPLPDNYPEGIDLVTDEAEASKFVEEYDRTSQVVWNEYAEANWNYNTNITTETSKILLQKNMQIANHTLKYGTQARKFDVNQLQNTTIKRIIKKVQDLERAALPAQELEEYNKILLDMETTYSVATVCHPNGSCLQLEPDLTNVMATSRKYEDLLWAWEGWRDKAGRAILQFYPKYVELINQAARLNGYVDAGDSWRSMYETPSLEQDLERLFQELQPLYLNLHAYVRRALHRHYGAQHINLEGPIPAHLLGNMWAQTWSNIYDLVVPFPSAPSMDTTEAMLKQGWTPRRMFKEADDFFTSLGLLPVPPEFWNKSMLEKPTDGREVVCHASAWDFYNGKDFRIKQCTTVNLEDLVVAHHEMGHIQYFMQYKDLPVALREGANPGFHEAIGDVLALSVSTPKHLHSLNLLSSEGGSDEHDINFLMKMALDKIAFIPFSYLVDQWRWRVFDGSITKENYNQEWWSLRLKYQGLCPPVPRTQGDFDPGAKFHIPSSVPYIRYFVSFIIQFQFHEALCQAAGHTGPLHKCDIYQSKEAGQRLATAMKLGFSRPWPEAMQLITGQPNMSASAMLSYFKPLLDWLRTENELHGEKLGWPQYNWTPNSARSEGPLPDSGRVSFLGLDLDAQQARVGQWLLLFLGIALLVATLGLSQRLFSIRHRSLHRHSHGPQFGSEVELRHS", "settings": "literature (MARUYAMA et al.); cited from earlier work"}, "Wistar rat [4]": {"tested_on": "Wistar rat", "assay": "Elevated cross maze test", "format": "in vivo", "settings": "for number of entries into the open arms / time spent in the open arms: p<0.05", "excerpt": "The elevated cross maze test enables the density of the exploratory behavior in a new aversive situation to be measured [PELLOW et al., 1985 (16)]. The experiment exploits the conflict, in rodents, between the fear of open spaces and the desire to explore a new environment. The rat, placed at the center of the device, is forced to explore its environment. The open arms constitute an anxiety-producing environment, while this is not the case for the closed arms. The number of entries into all of the arms, the number of entries into the open arms, the number of entries into the closed arms, the time spent in the open arms, and the latency of entry into the first open arm constitute parameters reflecting the degree of anxiety of the animal.\nThe elevated cross maze, made of wood, consists of four branches at 90° to one another. The two open branches (45×10 cm) and the two closed branches (45×10 cm, surrounded by wood plates over a height of 40 cm) are arranged opposite one another. The central square measures 10×10 cm. The open branches are illuminated by a white light with an intensity of 500 lx. The elevated cross maze is located 50 cm from the ground.\nThe observations took place at between 9 and 11 o'clock in the morning in order to minimize the influence of the circadian rhythm. Before each passage through the elevated cross maze, the animal is placed for 10 minutes in an open field in order to stimulate its exploratory behavior. It is then placed in the central square of the elevated cross maze, and observed for 5 minutes. The cross maze is washed with 95% ethanol (v/v) between two passages so as to remove odors.\nThe animals receive their respective treatment intraperitoneally one-half hour before being placed in the open field."}, "Wistar rat [5]": {"tested_on": "Wistar rat", "assay": "Light/dark box test", "format": "in vivo", "settings": "for time spent in the familiar compartment / time spent in the unfamiliar, aversive compartment: p<0.05, n=12", "excerpt": "The light/dark tests are based on the innate aversion of rodents for strongly illuminated environments and on their spontaneous exploratory behavior in response to mild stress factors such as a new environment and light. The light/dark box device enables the exploratory behavior of the rodent to be studied with regard to an unfamiliar aversive compartment (strongly illuminated with white light) after habituation in a non-aversive compartment (dark), which then becomes familiar [BOURIN and HASCOET, 2003 (17)]. Classic anxiolytics can be detected by using this device.\nThe light/dark box measures 65×49×35 cm (h×L×l) and is separated into two identical compartments by a plate with three 8×8-cm doors. The ground is covered with sawdust. Each rat is placed for 24 hours in the rear compartment of the box, and the doors communicating with the front compartment are made inaccessible. The rear compartment thus becomes the familiar compartment. The animal is fed and hydrated ad libitum. On the day of the test, the rat, after treatment, is again placed in the familiar compartment and the doors communicating with the front compartment (unfamiliar) are made accessible so that the animal can freely explore the environment. The unfamiliar compartment is made aversive by illumination with white light having an intensity of 1500 lx. The animals are observed for 10 minutes and the time spent in each of the compartments is measured.\nThe animals receive their respective treatments intraperitoneally one-half hour before the communication between the familiar compartment and the unfamiliar compartment is opened."}, "rat [6]": {"tested_on": "rat", "assay": "in vivo behavioral tests in the rat", "settings": "this application"}, "[7]": {"settings": "EP 0714910; cited from earlier work"}, "[8]": {"settings": "vehicle animals compared with animals treated 1 mg/kg intraperitoneally, n=15"}, "[9]": {"settings": "vehicle animals compared with animals treated 1 mg/kg intraperitoneally"}, "[10]": {"settings": "0.5 mg/kg i.p. versus diazepam 1 mg/kg i.p."}, "[11]": {"settings": "0.5 mg/kg intraperitoneally, Wistar rat"}, "[12]": {"settings": "vehicle animals compared with animals treated 0.5 mg/kg intraperitoneally, n=15"}, "[13]": {"settings": "vehicle animals compared with animals treated 0.5 mg/kg intraperitoneally"}},
  "note": "Read-outs that look alike come from different tables or passages of the source. No end group written: not given here.",
  "data": [
    {"compound": "90-95: αs1-casein peptide 90-95 (RYLGYL; UniProt P02662 105-110, looked up, fragment) [reference compound]", "values": [
      {"measurement": "in vitro opiate activity", "setting": "[1]", "value": "demonstrated in vitro opiate activity"}
    ]},
    {"compound": "90-96: αs1-casein peptide 90-96 (RYLGYLE; UniProt P02662 105-111, looked up, fragment) [reference compound]", "values": [
      {"measurement": "in vitro opiate activity", "setting": "[1]", "value": "demonstrated in vitro opiate activity"}
    ]},
    {"compound": "91-97: peptide 91-97 derived from decapeptide, not containing arginine 100 (YLGYLEQ; UniProt P02662 106-112, looked up, fragment)", "values": [
      {"measurement": "anxiolytic properties", "setting": "rat [2]", "value": "show anxiolytic properties"}
    ]},
    {"compound": "91-98: peptide 91-98 derived from decapeptide, not containing arginine 100 (YLGYLEQL; UniProt P02662 106-113, looked up, fragment)", "values": [
      {"measurement": "anxiolytic properties", "setting": "rat [2]", "value": "show anxiolytic properties"}
    ]},
    {"compound": "91-99: peptide 91-99 derived from decapeptide, not containing arginine 100 (YLGYLEQLL; UniProt P02662 106-114, looked up, fragment)", "values": [
      {"measurement": "anxiolytic properties", "setting": "rat [2]", "value": "show anxiolytic properties"}
    ]},
    {"compound": "194-199: αs1-casein peptide 194-199 (TTMPLW; UniProt P02662 209-214, looked up, fragment)", "values": [
      {"measurement": "angiotensin-I converting enzyme inhibition", "setting": "[3]", "value": "angiotensin-I converting enzyme inhibitors"}
    ]},
    {"compound": "CN1C(=O)CN=C(c2ccccc2)c2cc(Cl)ccc21", "note": "[diazepam, reference compound]", "values": [
      {"measurement": "number of entries into the open arms", "setting": "Wistar rat [4]; [8]", "value": "significantly lower"},
      {"measurement": "time spent in the open arms", "setting": "Wistar rat [4]; [8]", "value": "significantly lower"},
      {"measurement": "time spent in the familiar compartment", "setting": "Wistar rat [5]; [9]", "value": "increases significantly"},
      {"measurement": "time spent in the unfamiliar, aversive compartment", "setting": "Wistar rat [5]; [9]", "value": "significantly lower"}
    ]},
    {"compound": "Tyr-Leu-Gly-Tyr-Leu (YLGYL; listed as Bos taurus) [αs1-casein fragment 91-95, Pentapeptide corresponding to positions 91-95 of αs1-casein]", "values": [
      {"measurement": "difference versus diazepam in the elevated cross maze", "setting": "Wistar rat [4]; [10]", "value": "No significant difference"},
      {"measurement": "number of entries into all of the arms (exploratory activity)", "setting": "Wistar rat [4]; 0.5 mg/kg intraperitoneally one-half hour before open field, compared between treatments, n=15", "value": "not significantly different"},
      {"measurement": "action in the elevated cross maze test", "setting": "Wistar rat [4]; [11]", "value": "an action similar to that of diazepam, i.e. an increase in the exploration of anxiety-producing zones"},
      {"measurement": "number of entries into the open arms", "setting": "Wistar rat [4]; [12]", "value": "significantly lower"},
      {"measurement": "time spent in the open arms", "setting": "Wistar rat [4]; [12]", "value": "significantly lower"},
      {"measurement": "anxiolytic properties", "setting": "rat [6]", "value": "possible to demonstrate the anxiolytic properties"},
      {"measurement": "in vitro opiate activity", "setting": "[1]", "value": "practically inactive"},
      {"measurement": "difference versus diazepam in the light/dark box", "setting": "Wistar rat [5]; [10]", "value": "No significant difference"},
      {"measurement": "action in the light/dark box test", "setting": "Wistar rat [5]; [11]", "value": "anxiolytic-type action similar to that of diazepam"},
      {"measurement": "time spent in the familiar compartment", "setting": "Wistar rat [5]; [13]", "value": "increases significantly"},
      {"measurement": "time spent in the unfamiliar, aversive compartment", "setting": "Wistar rat [5]; [13]", "value": "significantly lower"}
    ]},
    {"compound": "YLGYLE [91-96, Hexapeptide corresponding to positions 91-96 of αs1-casein]", "values": [
      {"measurement": "anxiolytic properties", "setting": "rat [6]", "value": "possible to demonstrate the anxiolytic properties"},
      {"measurement": "in vitro opiate activity", "setting": "[1]", "value": "practically inactive"}
    ]},
    {"compound": "α-casozepine: αs1-casein fragment 91-100, decapeptide from αs1-casein tryptic hydrolysate (YLGYLEQLLR; UniProt P02662 106-115, looked up, fragment)", "values": [
      {"measurement": "anxiolytic activity", "setting": "[7]", "value": "original anxiolytic activity"}
    ]}
  ]
}
